“Also recorded” adds a separate entry of the source. Structures can show the parent of a compound that is named as a salt. Where two headings read alike, the source gives them in different places.
Key:
N-cNOS = target: T1, N-cNOS (Rattus norvegicus, UniProt P29476); assay: biochemical; settings: for IC50: N-cNOS, rat cerebral cortex, 100 μM L-[3H] arginine, 37° C., 10 min, pH 7.4, mean ± standard error
T1 construct: a soluble cytosolic fraction of the finally obtained supernate was used as the crude enzyme sample of N-cNOS; from tissue; host or cells: cerebral cortex of normal untreated male SD rats, 100,000×g soluble cytosolic fraction

iNOS [1] = target: T2, iNOS (Rattus norvegicus, UniProt Q06518); assay: Inhibition of iNOS, soluble fraction of lungs of LPS-treated rats; conversion of L-[3H] arginine to L-[3H] citrulline; assay type: biochemical
T2 construct: a soluble cytosolic fraction of the finally obtained supernate was used as the crude enzyme sample of iNOS; from tissue; host or cells: lungs of LPS-treated rats, 100,000×g soluble cytosolic fraction
Description: (§1) Compounds of the invention were evaluated for their inhibitory effect against NOS isoforms in comparison with the well known NOS inhibitors. The following were used as crude enzyme fractions of the respective NOS isoforms: a soluble fraction of the rat cerebral cortex for N-cNOS and a homogenate of cow pulmonary arterial endothelium cell (CPAE) for E-cNOS, whereas for iNOS, rats were administered lipopolysaccharide (LPS, 10 mg/kg, i.p.) and lungs were removed 6 h later to prepare soluble fractions.
The crude enzyme sample of iNOS was prepared by the following procedure. Rats were administered intraperitoneally with LPS (10 mg/kg) and, 6 h later, perfused in a transcardiac manner with physiological saline containing 10 U/ml of heparin; thereafter, lungs were removed. Subsequently, 5 volumes of 50 mM Tris-HCl containing 1 mM DTT (pH 7.4) was added and the mixture was homogenized for 3 min, followed by centrifugation of the homogenate at 1,000×g for 10 min. The resulting supernate was centrifuged at 100,000×g for 60 min and a soluble cytosolic fraction of the finally obtained supernate was used as the crude enzyme sample of iNOS.
The method of measuring NOS activity was basically the same as already reported by the present inventors and consisted of determining quantitatively the conversion of a substrate L-[^3 H] arginine to a reaction product L-[^3 H] citrulline [Nagafuji et al., in Brain Edema IX (Ito et al. eds.) 60, pp. 285-288, 1994, Acta Neurochir., Springer-Verlag].
The reaction solution consisted of 100 μM L-[^3 H] arginine, a prepared NOS enzyme (6-20 μg/ml protein), 1.25 mM CaCl2, 1 mM EDTA, 10 μg/ml calmodulin, 1 mM NADPH, 100 μM tetrahydrobiopterine, 10 μM FAD, 10 μM FMN and 50 mM Tris-HCl (pH 7.4), to which one of the compounds of the invention or one of the control compounds was added.
(§2) The reaction was started by addition of L-[^3 H] arginine and following incubation at 37° C. for 10 min, the reaction was terminated by addition of 2 ml of 50 mM Tris-HCl (pH 5.5) containing 1 mM EDTA and placing the mixture on ice. The reaction solution was passed through a cation-exchange resin column (Dowex AG50WX-8, Na^+ form, 3.2 ml) to separate the reaction product L-[^3 H] citrulline from the unreacted residual substrate L-[^3 H] arginine. The elute was combined with another elute resulting from the passage of distilled water (3 ml) through the column and put into a mini vial for recovery of L-[^3 H] citrulline. Thereafter, 5 ml of a scintillation fluid was added and the contained radioactivity was measured with a liquid scintillation counter to determine the amount of L-[^3 H] citrulline. The protein concentration of each crude enzyme sample was determined with a micro-assay kit of Biorad Co.
(§3) All data in Table 4 are expressed by mean ± standard error, with the number of cases indicated within parentheses.

E-cNOS = target: T3, E-cNOS (Bos taurus, UniProt P29473); assay: Inhibition of E-cNOS, homogenate of cow pulmonary arterial endothelium cell (CPAE); conversion of L-[3H] arginine to L-[3H] citrulline; assay type: biochemical
T3 construct: the mixture was homogenized for 3 min to yield the crude enzyme sample of E-cNOS; endogenous in cells; host or cells: CPAE (cow pulmonary arterial endothelium cells), whole homogenate
Description: as §1
The crude enzyme sample of E-cNOS was prepared by the following procedure. A cow pulmonary arterial endothelium cell (CPAE) was cultured in a MEM medium containing 20% of FBS. Several days later, the cells were detached from the flask using a solution of 0.25% trypsin containing 1 mM EDTA and after addition of 0.1 M phosphate-buffered saline (PBS; pH 7.4) diluted with physiological saline, centrifugation was conducted at 1,000 rpm for 5 min. The supernate was then discarded and upon addition of a suitable amount of PBS, centrifugation was performed at 1,000 rpm for 5 min to wash the cells. The same procedure was repeated using 50 mM Tris-HCl containing 1 mM DTT (pH 7.4) to wash the cells. The precipitating cells were added an adequate amount of 50 mM Tris-HCl containing 1 mM DTT (pH 7.4) and the mixture was homogenized for 3 min to yield the crude enzyme sample of E-cNOS.
as §2, §3

iNOS [2] = settings: cited from earlier work
[3] = index of selectivity, N-cNOS vs E-cNOS
[4] = index of selectivity, N-cNOS vs iNOS
[5] = iNOS, LPS rat lung, 100 μM L-[3H] arginine, 37° C., 10 min, pH 7.4, mean ± standard error
[6] = read-out: IC50 value iNOS (the concentration necessary to inhibit 50% activity), iNOS, LPS rat lung, 100 μM L-[3H] arginine, 37° C., 10 min, pH 7.4, mean ± standard error
[7] = E-cNOS, CPAE homogenate, 100 μM L-[3H] arginine, 37° C., 10 min, pH 7.4, mean ± standard error
[8] = compared with existing NOS inhibitors, dihydrochloride

T2 sequence (Q06518 whole entry): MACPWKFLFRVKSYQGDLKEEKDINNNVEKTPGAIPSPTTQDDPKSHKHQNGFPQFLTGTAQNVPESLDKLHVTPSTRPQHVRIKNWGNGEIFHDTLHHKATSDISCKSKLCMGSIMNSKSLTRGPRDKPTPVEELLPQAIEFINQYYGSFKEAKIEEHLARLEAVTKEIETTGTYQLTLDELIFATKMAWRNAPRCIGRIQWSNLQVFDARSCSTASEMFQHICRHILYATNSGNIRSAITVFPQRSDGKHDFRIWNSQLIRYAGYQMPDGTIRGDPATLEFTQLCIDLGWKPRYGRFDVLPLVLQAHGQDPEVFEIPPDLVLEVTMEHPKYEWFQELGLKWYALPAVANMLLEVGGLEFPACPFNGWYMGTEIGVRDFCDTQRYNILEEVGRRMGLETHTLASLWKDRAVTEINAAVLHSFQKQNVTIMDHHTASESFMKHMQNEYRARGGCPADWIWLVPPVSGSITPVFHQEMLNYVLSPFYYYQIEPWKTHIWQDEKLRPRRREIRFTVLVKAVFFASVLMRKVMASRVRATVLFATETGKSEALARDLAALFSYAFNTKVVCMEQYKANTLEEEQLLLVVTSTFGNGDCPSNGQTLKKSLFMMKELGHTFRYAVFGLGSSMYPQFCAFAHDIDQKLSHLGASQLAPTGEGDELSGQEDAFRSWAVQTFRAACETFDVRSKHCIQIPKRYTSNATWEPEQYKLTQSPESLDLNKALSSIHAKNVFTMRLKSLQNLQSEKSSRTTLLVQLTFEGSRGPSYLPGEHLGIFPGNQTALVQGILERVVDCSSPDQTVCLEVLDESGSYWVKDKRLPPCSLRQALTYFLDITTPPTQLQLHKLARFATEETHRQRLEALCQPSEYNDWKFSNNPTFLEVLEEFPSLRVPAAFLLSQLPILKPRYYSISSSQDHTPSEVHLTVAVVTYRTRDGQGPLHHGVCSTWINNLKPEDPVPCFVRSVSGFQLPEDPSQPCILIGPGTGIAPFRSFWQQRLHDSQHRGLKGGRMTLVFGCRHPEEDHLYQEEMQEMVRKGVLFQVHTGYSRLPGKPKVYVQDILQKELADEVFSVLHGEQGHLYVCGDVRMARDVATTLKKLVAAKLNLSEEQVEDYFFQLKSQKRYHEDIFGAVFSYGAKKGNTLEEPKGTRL
T3 sequence (P29473 2-1205): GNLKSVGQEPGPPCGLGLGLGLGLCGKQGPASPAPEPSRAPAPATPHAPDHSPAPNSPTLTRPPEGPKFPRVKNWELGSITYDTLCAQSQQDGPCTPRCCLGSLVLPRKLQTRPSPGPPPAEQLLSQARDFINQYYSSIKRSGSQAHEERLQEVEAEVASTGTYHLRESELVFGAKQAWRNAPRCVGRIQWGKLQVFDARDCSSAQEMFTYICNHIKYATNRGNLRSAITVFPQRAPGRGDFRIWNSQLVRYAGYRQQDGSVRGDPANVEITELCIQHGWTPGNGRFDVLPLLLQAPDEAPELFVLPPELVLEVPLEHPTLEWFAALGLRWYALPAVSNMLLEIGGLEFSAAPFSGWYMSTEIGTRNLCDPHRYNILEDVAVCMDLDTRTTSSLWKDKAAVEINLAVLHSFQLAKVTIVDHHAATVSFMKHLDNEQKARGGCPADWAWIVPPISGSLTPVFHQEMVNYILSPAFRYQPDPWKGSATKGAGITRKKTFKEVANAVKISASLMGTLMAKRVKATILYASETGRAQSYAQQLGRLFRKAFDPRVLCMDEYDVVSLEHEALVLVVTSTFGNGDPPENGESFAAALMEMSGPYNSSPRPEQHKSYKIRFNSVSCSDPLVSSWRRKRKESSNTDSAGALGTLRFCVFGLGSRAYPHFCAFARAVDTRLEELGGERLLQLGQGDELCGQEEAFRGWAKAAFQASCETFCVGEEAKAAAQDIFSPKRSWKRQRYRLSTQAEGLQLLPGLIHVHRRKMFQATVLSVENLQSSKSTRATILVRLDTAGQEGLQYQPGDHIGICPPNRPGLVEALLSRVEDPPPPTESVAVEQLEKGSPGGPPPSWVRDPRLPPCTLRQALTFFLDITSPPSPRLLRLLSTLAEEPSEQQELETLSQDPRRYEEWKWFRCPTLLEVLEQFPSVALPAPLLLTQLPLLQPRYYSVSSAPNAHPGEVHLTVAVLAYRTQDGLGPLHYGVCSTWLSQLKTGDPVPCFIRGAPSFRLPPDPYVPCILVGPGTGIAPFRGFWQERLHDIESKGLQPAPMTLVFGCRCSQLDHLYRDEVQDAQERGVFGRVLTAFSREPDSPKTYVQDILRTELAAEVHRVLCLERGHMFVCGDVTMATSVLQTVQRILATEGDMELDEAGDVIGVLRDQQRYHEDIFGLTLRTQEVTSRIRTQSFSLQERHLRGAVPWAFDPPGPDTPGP
T1 sequence (P29476 whole entry): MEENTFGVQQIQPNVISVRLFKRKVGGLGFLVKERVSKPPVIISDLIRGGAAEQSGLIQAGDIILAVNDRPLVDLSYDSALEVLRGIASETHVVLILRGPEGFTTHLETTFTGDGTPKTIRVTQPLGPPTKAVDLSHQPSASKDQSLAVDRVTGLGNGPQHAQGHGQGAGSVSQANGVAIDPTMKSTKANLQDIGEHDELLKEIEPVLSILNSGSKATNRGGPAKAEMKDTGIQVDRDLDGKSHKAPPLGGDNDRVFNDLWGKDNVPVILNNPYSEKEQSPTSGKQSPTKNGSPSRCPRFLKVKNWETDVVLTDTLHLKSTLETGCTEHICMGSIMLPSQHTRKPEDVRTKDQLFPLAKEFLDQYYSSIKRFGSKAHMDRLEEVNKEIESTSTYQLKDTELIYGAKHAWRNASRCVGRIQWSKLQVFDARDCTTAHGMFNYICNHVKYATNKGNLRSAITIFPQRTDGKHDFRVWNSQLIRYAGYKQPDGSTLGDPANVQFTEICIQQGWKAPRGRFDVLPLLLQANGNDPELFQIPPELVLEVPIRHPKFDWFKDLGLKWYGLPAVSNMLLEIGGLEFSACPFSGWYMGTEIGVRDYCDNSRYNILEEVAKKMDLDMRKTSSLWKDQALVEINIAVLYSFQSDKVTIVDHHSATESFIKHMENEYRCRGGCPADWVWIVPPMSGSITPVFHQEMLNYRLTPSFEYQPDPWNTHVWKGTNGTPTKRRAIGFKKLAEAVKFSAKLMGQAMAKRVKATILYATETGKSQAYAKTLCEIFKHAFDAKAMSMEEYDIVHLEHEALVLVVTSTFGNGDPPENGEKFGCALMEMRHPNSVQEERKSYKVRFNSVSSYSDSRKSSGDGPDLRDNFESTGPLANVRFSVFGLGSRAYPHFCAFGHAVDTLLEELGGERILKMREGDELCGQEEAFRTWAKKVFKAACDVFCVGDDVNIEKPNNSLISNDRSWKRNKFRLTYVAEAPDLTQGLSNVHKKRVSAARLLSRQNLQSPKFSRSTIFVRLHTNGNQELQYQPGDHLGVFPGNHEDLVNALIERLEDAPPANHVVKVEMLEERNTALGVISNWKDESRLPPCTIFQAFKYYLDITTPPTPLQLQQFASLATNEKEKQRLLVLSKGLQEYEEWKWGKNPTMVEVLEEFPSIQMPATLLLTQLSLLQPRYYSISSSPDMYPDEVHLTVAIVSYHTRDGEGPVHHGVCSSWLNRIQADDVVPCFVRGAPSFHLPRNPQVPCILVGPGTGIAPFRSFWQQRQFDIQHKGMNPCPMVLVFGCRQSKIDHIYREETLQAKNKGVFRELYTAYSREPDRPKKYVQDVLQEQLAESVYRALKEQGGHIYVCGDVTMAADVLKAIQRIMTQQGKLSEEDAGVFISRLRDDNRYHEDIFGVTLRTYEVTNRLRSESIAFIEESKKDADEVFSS

| Compound | IC50 (iNOS [1]; [5]) [nM] | Ratio of I50 values E-cNOS/N-cNOS (N-cNOS; [3]) | Ratio of I50 values iNOS/N-cNOS (N-cNOS; [4]) | IC50 (N-cNOS) [nM] | IC50 (E-cNOS; [7]) [nM] | also measured |
| --- | --- | --- | --- | --- | --- | --- |
| CCSC(=N)NCCC[C@H](N)C(=O)O [Example 2, δ-(S-ethylisothioureido)-L-norvaline] |  |  |  |  |  | N-cNOS inhibitory effect (in words) (N-cNOS; compared with existing NOS inhibitors): stronger N-cNOS inhibitory effect than the existing NOS inhibitors; also recorded: strong brain N-cNOS inhibitory effect; E-cNOS inhibitory effect (in words) (E-cNOS): weak E-cNOS inhibitory effect; IC50 (E-cNOS): 492 ± 315 nM; IC50 (iNOS [1]; [6]): 6760 nM |
| CSC(=N)NCCCC[C@H](N)C(=O)O.Cl.Cl [Example 10, ε-(S-methylisothioureido)-L-norleucine dihydrochloride] | 10400 | 5.1 | 8.3 | 1260 | 6410 |  |
| COC(=O)[C@@H](N)CCCNC(=N)N[N+](=O)[O-] [L-NAME, N^G -nitro-L-arginine methyl ester, reference compound] |  |  |  |  |  | IC50 (iNOS [1]; [6]): 13500 nM |
| C=CCSC(=N)NCCC[C@H](N)C(=O)O.Cl.Cl [Example 6, δ-(S-(2-propenyl)isothioureido)-L-norvaline dihydrochloride] | 298 | 10.4 | 2.6 | 113 ± 6 | 1180 | selectivity for N-cNOS or iNOS (in words) (N-cNOS; N-cNOS vs iNOS, compared with existing NOS inhibitors, dihydrochloride): extremely high selective inhibitory effect on iNOS; iNOS inhibitory effect (in words) (iNOS [1]; [8]): by far stronger iNOS inhibitory effect than the existing NOS inhibitors; also recorded: strong iNOS inhibitory effect; iNOS selective inhibitory effect (in words) (iNOS [1]; over existing NOS inhibitors): by far superior iNOS selective inhibitory effect over the existing NOS inhibitors |
| N=C(NCCC[C@H](N)C(=O)O)NC1CC1 [L-CPA, N^G -cyclopropyl-L-arginine, reference compound] |  |  |  |  | 1480 | IC50 (iNOS [1]; [6]): 7150 nM |
| Cl.Cl.N=C(NCCC[C@H](N)C(=O)O)SCCF [Example 4, δ-(S-(2-fluoroethyl)-isothioureido)-L-norvaline dihydrochloride] | 501 | 124.9 | 47.7 | 10.5 ± 0.8 | 1310 | selectivity for N-cNOS or E-cNOS (in words) (N-cNOS; N-cNOS vs E-cNOS, compared with existing NOS inhibitors, dihydrochloride): more selective inhibitory effect on N-cNOS compared with the existing NOS inhibitors; also recorded: outstandingly high selective inhibitory effect on brain N-cNOS; N-cNOS inhibitory effect (in words) (N-cNOS; [8]): stronger N-cNOS inhibitory effect than the existing NOS inhibitors; also recorded: strong brain N-cNOS inhibitory effect; N-cNOS selective inhibitory effect (in words) (N-cNOS; over existing NOS inhibitors): by far superior N-cNOS selective inhibitory effect over the existing NOS inhibitors; E-cNOS inhibitory effect (in words) (E-cNOS): weak E-cNOS inhibitory effect |
| N=C(N)NN [AG, aminoguanidine, reference compound] |  |  | 1.3 |  |  | Ratio of I50 values E-cNOS/N-cNOS (N-cNOS): > 4.9; IC50 (iNOS [1]): 27200 nM; selectivity for iNOS vs E-cNOS (in words) (iNOS [2]; Griffith et al. 1993): selectivity for iNOS in comparison with the E-cNOS inhibiting action; inhibiting potency and selectivity for iNOS (in words) (iNOS [2]; as a therapeutic against hypotension in sepsis): insufficient to warrant its use as a therapeutic effective against hypotension in sepsis |

The next lines start with results.

| IC50 (iNOS [1]; [5]) [nM] | Compound | Ratio of I50 values E-cNOS/N-cNOS (N-cNOS; [3]) | Ratio of I50 values iNOS/N-cNOS (N-cNOS; [4]) | IC50 (N-cNOS) [nM] | IC50 (E-cNOS; [7]) [nM] | also measured |
| --- | --- | --- | --- | --- | --- | --- |
| 12000 | C=CCNC(=N)NCCC[C@H](N)C(=O)O [L-ALA, N^G -allyl-L-arginine, reference compound] | 15.2 | 12.1 |  |  |  |
| 4500 | CCCSC(=N)NCCC[C@H](N)C(=O)O [Example 12, δ-(S-(n-propyl)isothioureido)-L-norvaline] | 9.3 | 3.4 | 1340 | 12500 |  |
| 458 ± 85.8 | CC(=N)NCCC[C@H](N)C(=O)O [L-NIO, N^G -iminoethyl-ornithine, reference compound] |  |  |  |  |  |
| 6930 | O=[N+]([O-])c1cccc2cn[nH]c12 [Example 7-NI, 7-nitroindazole, reference compound] |  |  |  |  |  |
| 5410 | N[C@@H](CCCNC1=NCCS1)C(=O)O [Example 8, δ-(2,3-dehydrothiazolin-2-yl)amino-L-norvaline dihydrochloride] | 5.9 | 9.6 | 564 ± 284 | 3320 |  |
